According to publication PMC7957565 (Molecules, 2021):

Assays:
[1] = biological target: T1, AChE (from electric eel) (Electrophorus electricus, UniProt O42275); assay: biochemical; conditions: eeAChE; for inhibition at 100 µM: compound at 100 μM, read-out: AChE inhibition rate (%) in 100 μM; for IC50: mean ± spread
T1 construct: purchased Sigma-Aldrich

[2] = biological target: butyrylcholinesterase (BuChE, from equine serum) (Equus caballus, UniProt P81908); assay: biochemical; conditions: eqBuChE; mean ± spread
Chain of butyrylcholinesterase (BuChE, from equine serum) (P81908 whole entry): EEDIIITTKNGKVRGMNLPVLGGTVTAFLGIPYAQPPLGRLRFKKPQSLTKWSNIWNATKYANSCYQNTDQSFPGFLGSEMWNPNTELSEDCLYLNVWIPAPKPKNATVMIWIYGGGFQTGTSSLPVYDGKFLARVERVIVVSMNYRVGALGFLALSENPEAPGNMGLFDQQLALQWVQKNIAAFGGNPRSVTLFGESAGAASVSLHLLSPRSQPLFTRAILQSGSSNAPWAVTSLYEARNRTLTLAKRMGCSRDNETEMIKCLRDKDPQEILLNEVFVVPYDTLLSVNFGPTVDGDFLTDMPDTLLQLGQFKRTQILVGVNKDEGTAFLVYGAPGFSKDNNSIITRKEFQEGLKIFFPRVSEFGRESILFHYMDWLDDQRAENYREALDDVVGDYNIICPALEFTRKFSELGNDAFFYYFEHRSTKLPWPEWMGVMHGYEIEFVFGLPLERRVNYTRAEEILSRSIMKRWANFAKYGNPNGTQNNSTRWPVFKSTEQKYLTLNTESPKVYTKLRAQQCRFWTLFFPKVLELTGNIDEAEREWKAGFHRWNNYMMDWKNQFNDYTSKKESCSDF

T1 sequence (O42275 24-633): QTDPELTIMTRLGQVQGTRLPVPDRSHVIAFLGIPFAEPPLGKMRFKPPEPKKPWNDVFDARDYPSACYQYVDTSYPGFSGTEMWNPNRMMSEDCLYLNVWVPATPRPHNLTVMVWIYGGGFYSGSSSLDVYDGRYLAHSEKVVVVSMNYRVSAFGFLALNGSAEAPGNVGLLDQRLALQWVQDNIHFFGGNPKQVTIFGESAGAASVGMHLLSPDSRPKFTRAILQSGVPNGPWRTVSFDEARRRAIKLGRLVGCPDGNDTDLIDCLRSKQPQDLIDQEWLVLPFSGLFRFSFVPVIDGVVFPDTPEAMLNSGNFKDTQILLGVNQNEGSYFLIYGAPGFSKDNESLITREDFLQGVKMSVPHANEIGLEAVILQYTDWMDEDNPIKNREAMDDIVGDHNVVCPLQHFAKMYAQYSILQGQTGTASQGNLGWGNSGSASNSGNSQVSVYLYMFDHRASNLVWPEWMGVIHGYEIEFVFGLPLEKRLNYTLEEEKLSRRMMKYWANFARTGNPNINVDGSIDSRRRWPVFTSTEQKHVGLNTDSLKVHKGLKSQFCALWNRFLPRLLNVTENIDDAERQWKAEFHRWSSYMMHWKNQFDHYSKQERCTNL

Compound | inhibition at 100 µM [1] [%] | IC50 [2] [µM] | IC50 [1] [µM]
COc1ccc2[nH]c3c4c(c(C=O)cc3c2c1)OC(C)(C)C=C4 [Clau F, Claulansine F, reference compound] | 28.2 ± 2.11 | 64.3 ± 7.52 | –
CC1(C)C=Cc2c(c(/C=C/C(=O)NC3CCN(Cc4ccccc4)CC3)cc3c2[nH]c2ccc(C(C)(C)C)cc23)O1 [Compound 6aa, (E)-N-(1-Benzylpiperidin-4-yl)-3-(8-(tert-butyl)-3,3-dimethyl-3,11-dihydropyrano[3,2-a]carbazol-5-yl)acrylamide] | – | 22.9 ± 1.14 | 51.9 ± 2.24
CC1(C)C=Cc2c(c(/C=C/C(=O)NC3CCN(Cc4ccccc4F)CC3)cc3c2[nH]c2ccc(C(C)(C)C)cc23)O1 [Compound 6ab, (E)-3-(8-(tert-Butyl)-3,3-dimethyl-3,11-dihydropyrano[3,2-a]carbazol-5-yl)-N-(1-(2-fluorobenzyl)piperidin-4-yl)acrylamide] | 36.16 ± 0.31 | 35.9 ± 5.13 | –
Cc1ccccc1CN1CCC(NC(=O)/C=C/c2cc3c([nH]c4ccc(C(C)(C)C)cc43)c3c2OC(C)(C)C=C3)CC1 [Compound 6ac, (E)-3-(8-(tert-Butyl)-3,3-dimethyl-3,11-dihydropyrano[3,2-a]carbazol-5-yl)-N-(1-(2-methylbenzyl)piperidin-4-yl)acrylamide] | 50.9 ± 2.76 | 34.3 ± 0.69 | –
CC1(C)C=Cc2c(c(/C=C/C(=O)NC3CCN(Cc4ccccc4Cl)CC3)cc3c2[nH]c2ccc(C(C)(C)C)cc23)O1 [Compound 6ad, (E)-3-(8-(tert-Butyl)-3,3-dimethyl-3,11-dihydropyrano[3,2-a]carbazol-5-yl)-N-(1-(2-chlorobenzyl)piperidin-4-yl)acrylamide] | 42.5 ± 6.12 | 38.8 ± 2.48 | –
COc1ccc2[nH]c3c4c(c(/C=C/C(=O)NC5CCN(Cc6ccccc6)CC5)cc3c2c1)OC(C)(C)C=C4 [Compound 6ae, (E)-N-(1-Benzylpiperidin-4-yl)-3-(8-methoxy-3,3-dimethyl-3,11-dihydropyrano[3,2-a]carbazol-5-yl)acrylamide] | 20.4 ± 7.35 | 69.1 ± 8.51 | –
COc1ccc2[nH]c3c4c(c(/C=C/C(=O)NC5CCN(Cc6ccccc6F)CC5)cc3c2c1)OC(C)(C)C=C4 [Compound 6af, (E)-N-(1-(2-Fluorobenzyl)piperidin-4-yl)-3-(8-methoxy-3,3-dimethyl-3,11-dihydropyrano[3,2-a]carbazol-5-yl)acrylamide] | 34.2 ± 10.7 | 24.5 ± 1.94 | –
COc1ccc2[nH]c3c4c(c(/C=C/C(=O)NC5CCN(Cc6ccccc6C)CC5)cc3c2c1)OC(C)(C)C=C4 [Compound 6ag, (E)-3-(8-Methoxy-3,3-dimethyl-3,11-dihydropyrano[3,2-a]carbazol-5-yl)-N-(1-(2-methylbenzyl)piperidin-4-yl)acrylamide] | 36.8 ± 1.25 | 26.4 ± 4.51 | –
COc1ccc2[nH]c3c4c(c(/C=C/C(=O)NC5CCN(Cc6ccccc6Cl)CC5)cc3c2c1)OC(C)(C)C=C4 [Compound 6ah, (E)-N-(1-(2-Chlorobenzyl)piperidin-4-yl)-3-(8-methoxy-3,3-dimethyl-3,11-dihydropyrano[3,2-a]carbazol-5-yl)acrylamide] | 40 ± 1.4 | 18 ± 2.27 | –
CC1(C)C=Cc2c(c(/C=C/C(=O)NCC3CCN(Cc4ccccc4)CC3)cc3c2[nH]c2ccc(C(C)(C)C)cc23)O1 [Compound 6ba, (E)-N-((1-Benzylpiperidin-4-yl)methyl)-3-(8-(tert-butyl)-3,3-dimethyl-3,11-dihydropyrano[3,2-a]carbazol-5-yl)acrylamide] | – | 12.3 ± 0.66 | 4.62 ± 0.28
Cc1ccccc1CN1CCC(CNC(=O)/C=C/c2cc3c([nH]c4ccc(C(C)(C)C)cc43)c3c2OC(C)(C)C=C3)CC1 [Compound 6bc, (E)-3-(8-(tert-Butyl)-3,3-dimethyl-3,11-dihydropyrano[3,2-a]carbazol-5-yl)-N-((1-(2-methylbenzyl)piperidin-4-yl)methyl)acrylamide] | – | 19 ± 0.94 | 4.26 ± 0.22
COc1ccc2[nH]c3c4c(c(/C=C/C(=O)NCC5CCN(Cc6ccccc6)CC5)cc3c2c1)OC(C)(C)C=C4 [Compound 6bg, (E)-N-((1-Benzylpiperidin-4-yl)methyl)-3-(8-methoxy-3,3-dimethyl-3,11-dihydropyrano[3,2-a]carbazol-5-yl)acrylamide] | – | 74.9 ± 3.21 | 27.7 ± 5.15
COc1ccc2[nH]c3c4c(c(/C=C/C(=O)NCC5CCN(Cc6ccccc6F)CC5)cc3c2c1)OC(C)(C)C=C4 [Compound 6bh, (E)-N-((1-(2-Fluorobenzyl)piperidin-4-yl)methyl)-3-(8-methoxy-3,3-dimethyl-3,11-dihydropyrano[3,2-a]carbazol-5-yl)acrylamide] | – | 31.5 ± 3.88 | 23.6 ± 8.31
COc1ccc2[nH]c3c4c(c(/C=C/C(=O)NCC5CCN(Cc6ccccc6C)CC5)cc3c2c1)OC(C)(C)C=C4 [Compound 6bi, (E)-3-(8-Methoxy-3,3-dimethyl-3,11-dihydropyrano[3,2-a]carbazol-5-yl)-N-((1-(2-methylbenzyl)piperidin-4-yl)methyl)acrylamide] | – | 32.8 ± 0.5 | 58.4 ± 1.79
COc1ccc2[nH]c3c4c(c(/C=C/C(=O)NCC5CCN(Cc6ccccc6Cl)CC5)cc3c2c1)OC(C)(C)C=C4 [Compound 6bj, (E)-N-((1-(2-Chlorobenzyl)piperidin-4-yl)methyl)-3-(8-methoxy-3,3-dimethyl-3,11-dihydropyrano[3,2-a]carbazol-5-yl)acrylamide] | – | 37.6 ± 0.56 | 91.1 ± 4.41
CC1(C)C=Cc2c(c(/C=C/C(=O)NCCC3CCN(Cc4ccccc4)CC3)cc3c2[nH]c2ccc(C(C)(C)C)cc23)O1 [Compound 6ca, (E)-N-(2-(1-Benzylpiperidin-4-yl)ethyl)-3-(8-(tert-butyl)-3,3-dimethyl-3,11-dihydropyrano[3,2-a]carbazol-5-yl)acrylamide] | – | 23.4 ± 0.95 | 9 ± 0.86
CC1(C)C=Cc2c(c(/C=C/C(=O)NCCC3CCN(Cc4ccccc4F)CC3)cc3c2[nH]c2ccc(C(C)(C)C)cc23)O1 [Compound 6cb, (E)-3-(8-(tert-Butyl)-3,3-dimethyl-3,11-dihydropyrano[3,2-a]carbazol-5-yl)-N-(2-(1-(2-fluorobenzyl)piperidin-4-yl)ethyl)acrylamide] | – | 19.1 ± 2.04 | 10.7 ± 0.2
Cc1ccccc1CN1CCC(CCNC(=O)/C=C/c2cc3c([nH]c4ccc(C(C)(C)C)cc43)c3c2OC(C)(C)C=C3)CC1 [Compound 6cc, (E)-3-(8-(tert-Butyl)-3,3-dimethyl-3,11-dihydropyrano[3,2-a]carbazol-5-yl)-N-(2-(1-(2-methylbenzyl)piperidin-4-yl)ethyl)acrylamide] | – | 33.8 ± 0.51 | 14.3 ± 0.36
CC1(C)C=Cc2c(c(/C=C/C(=O)NCCC3CCN(Cc4ccccc4Cl)CC3)cc3c2[nH]c2ccc(C(C)(C)C)cc23)O1 [Compound 6cd, (E)-3-(8-(tert-Butyl)-3,3-dimethyl-3,11-dihydropyrano[3,2-a]carbazol-5-yl)-N-(2-(1-(2-chlorobenzyl)piperidin-4-yl)ethyl)acrylamide] | – | 17.3 ± 4.82 | 17 ± 1.51
COc1ccc2[nH]c3c4c(c(/C=C/C(=O)NCCC5CCN(Cc6ccccc6)CC5)cc3c2c1)OC(C)(C)C=C4 [Compound 6ce, (E)-N-(2-(1-Benzylpiperidin-4-yl)ethyl)-3-(8-methoxy-3,3-dimethyl-3,11-dihydropyrano[3,2-a]carbazol-5-yl)acrylamide] | – | 26.4 ± 1.4 | 41.7 ± 1.22
COc1ccc2[nH]c3c4c(c(/C=C/C(=O)NCCC5CCN(Cc6ccccc6F)CC5)cc3c2c1)OC(C)(C)C=C4 [Compound 6cf, (E)-N-(2-(1-(2-Fluorobenzyl)piperidin-4-yl)ethyl)-3-(8-methoxy-3,3-dimethyl-3,11-dihydropyrano[3,2-a]carbazol-5-yl)acrylamide] | – | 18 ± 3.35 | 54.8 ± 7.96
COc1ccc2[nH]c3c4c(c(/C=C/C(=O)NCCC5CCN(Cc6ccccc6C)CC5)cc3c2c1)OC(C)(C)C=C4 [Compound 6cg, (E)-3-(8-Methoxy-3,3-dimethyl-3,11-dihydropyrano[3,2-a]carbazol-5-yl)-N-(2-(1-(2-methylbenzyl)piperidin-4-yl)ethyl)acrylamide] | – | 26.7 ± 1.76 | 73 ± 1.93
COc1ccc2[nH]c3c4c(c(/C=C/C(=O)NCCC5CCN(Cc6ccccc6Cl)CC5)cc3c2c1)OC(C)(C)C=C4 [Compound 6ch, (E)-N-(2-(1-(2-Chlorobenzyl)piperidin-4-yl)ethyl)-3-(8-methoxy-3,3-dimethyl-3,11-dihydropyrano[3,2-a]carbazol-5-yl)acrylamide] | – | 24.2 ± 4.78 | 24.6 ± 2.1
